Experiments:
[1] = tested on: Pseudomonas aeruginosa (AY); assay: MBC (minimum bactericidal concentration) test in Wash NEXT reagent; format: cell-based
Gram positive rods (S) = assay: as above; format: cell-based

## gentamicin
[1]; 10% preservative, 8 hour
  MBC test growth score: +/−
[1]; 10% preservative, 24 hour
  MBC test growth score: −
[1]; 10% preservative, 48 hour
  MBC test growth score: −
[1]; 10% preservative, 72 hour
  MBC test growth score: −
[1]; 20% preservative, 8 hour
  MBC test growth score: +/−
[1]; 20% preservative, 24 hour
  MBC test growth score: −
[1]; 20% preservative, 48 hour
  MBC test growth score: −
[1]; 20% preservative, 72 hour
  MBC test growth score: −
[1]; 30% preservative, 8 hour
  MBC test growth score: −
[1]; 30% preservative, 24 hour
  MBC test growth score: −
[1]; 30% preservative, 48 hour
  MBC test growth score: −
[1]; 30% preservative, 72 hour
  MBC test growth score: −
[1]; 40% preservative, 8 hour
  MBC test growth score: −
[1]; 40% preservative, 24 hour
  MBC test growth score: −
[1]; 40% preservative, 48 hour
  MBC test growth score: −
[1]; 40% preservative, 72 hour
  MBC test growth score: −
[1]; 50% preservative, 8 hour
  MBC test growth score: −
[1]; 50% preservative, 24 hour
  MBC test growth score: −
[1]; 50% preservative, 48 hour
  MBC test growth score: −
[1]; 50% preservative, 72 hour
  MBC test growth score: −
[1]; 60% preservative, 8 hour
  MBC test growth score: −
[1]; 60% preservative, 24 hour
  MBC test growth score: −
[1]; 60% preservative, 48 hour
  MBC test growth score: −
[1]; 60% preservative, 72 hour
  MBC test growth score: −
[1]; 70% preservative, 8 hour
  MBC test growth score: −
[1]; 70% preservative, 24 hour
  MBC test growth score: −
[1]; 70% preservative, 48 hour
  MBC test growth score: −
[1]; 70% preservative, 72 hour
  MBC test growth score: −
[1]; 80% preservative, 8 hour
  MBC test growth score: −
[1]; 80% preservative, 24 hour
  MBC test growth score: −
[1]; 80% preservative, 48 hour
  MBC test growth score: −
[1]; 80% preservative, 72 hour
  MBC test growth score: −
[1]; 90% preservative, 8 hour
  MBC test growth score: −
[1]; 90% preservative, 24 hour
  MBC test growth score: −
[1]; 90% preservative, 48 hour
  MBC test growth score: −
[1]; 90% preservative, 72 hour
  MBC test growth score: −
[1]; 100% preservative, 8 hour
  MBC test growth score: −
[1]; 100% preservative, 24 hour
  MBC test growth score: −
[1]; 100% preservative, 48 hour
  MBC test growth score: −
[1]; 100% preservative, 72 hour
  MBC test growth score: −
Gram positive rods (S); 10% preservative, 8 hour
  MBC test growth score: −
Gram positive rods (S); 10% preservative, 24 hour
  MBC test growth score: −
Gram positive rods (S); 10% preservative, 48 hour
  MBC test growth score: −
Gram positive rods (S); 10% preservative, 72 hour
  MBC test growth score: −
Gram positive rods (S); 20% preservative, 8 hour
  MBC test growth score: −
Gram positive rods (S); 20% preservative, 24 hour
  MBC test growth score: −
Gram positive rods (S); 20% preservative, 48 hour
  MBC test growth score: −
Gram positive rods (S); 20% preservative, 72 hour
  MBC test growth score: −
Gram positive rods (S); 30% preservative, 8 hour
  MBC test growth score: −
Gram positive rods (S); 30% preservative, 24 hour
  MBC test growth score: −
Gram positive rods (S); 30% preservative, 48 hour
  MBC test growth score: −
Gram positive rods (S); 30% preservative, 72 hour
  MBC test growth score: −
Gram positive rods (S); 40% preservative, 8 hour
  MBC test growth score: −
Gram positive rods (S); 40% preservative, 24 hour
  MBC test growth score: −
Gram positive rods (S); 40% preservative, 48 hour
  MBC test growth score: −
Gram positive rods (S); 40% preservative, 72 hour
  MBC test growth score: −
Gram positive rods (S); 50% preservative, 8 hour
  MBC test growth score: −
Gram positive rods (S); 50% preservative, 24 hour
  MBC test growth score: −
Gram positive rods (S); 50% preservative, 48 hour
  MBC test growth score: −
Gram positive rods (S); 50% preservative, 72 hour
  MBC test growth score: −
Gram positive rods (S); 60% preservative, 8 hour
  MBC test growth score: −
Gram positive rods (S); 60% preservative, 24 hour
  MBC test growth score: −
Gram positive rods (S); 60% preservative, 48 hour
  MBC test growth score: −
Gram positive rods (S); 60% preservative, 72 hour
  MBC test growth score: −
Gram positive rods (S); 70% preservative, 8 hour
  MBC test growth score: −
Gram positive rods (S); 70% preservative, 24 hour
  MBC test growth score: −
Gram positive rods (S); 70% preservative, 48 hour
  MBC test growth score: −
Gram positive rods (S); 70% preservative, 72 hour
  MBC test growth score: −
Gram positive rods (S); 80% preservative, 8 hour
  MBC test growth score: −
Gram positive rods (S); 80% preservative, 24 hour
  MBC test growth score: −
Gram positive rods (S); 80% preservative, 48 hour
  MBC test growth score: −
Gram positive rods (S); 80% preservative, 72 hour
  MBC test growth score: −
Gram positive rods (S); 90% preservative, 8 hour
  MBC test growth score: −
Gram positive rods (S); 90% preservative, 24 hour
  MBC test growth score: −
Gram positive rods (S); 90% preservative, 48 hour
  MBC test growth score: −
Gram positive rods (S); 90% preservative, 72 hour
  MBC test growth score: −
Gram positive rods (S); 100% preservative, 8 hour
  MBC test growth score: −
Gram positive rods (S); 100% preservative, 24 hour
  MBC test growth score: −
Gram positive rods (S); 100% preservative, 48 hour
  MBC test growth score: −
Gram positive rods (S); 100% preservative, 72 hour
  MBC test growth score: −

From patent US20140094424A1, “MICROBICIDAL COMPOSITIONS AND METHODS OF PRODUCTION USE THEREOF” (priority 2011, published 2014)
